Laboratory results: the supplement of paper PMC11061612

Legend:
Assay in all cases: combination Emax (second highest fraction inhibited in the dose matrix, 72 h); higher = more inhibition; extreme values may be limits of the assay
[1] = test system: HSC-4 (Oral Cavity Carcinoma)
Procedure, shortened: (§1)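 After 24 hours at 37°C and 5% CO2 in 1536-well plates, cells in DMEM/F12 or RPMI plus 10% FBS received two-drug dose matrices for 72 hours. Viability came from CellTiter-Glo 2.0 luminescence and was scaled as inhibition, anchored at 0 by vehicle wells and at 1 by blank wells. Combination Emax is taken as the second-highest inhibition in the matrix, and Bliss excess as the observed combination effect less EA + EB − EA·EB, with EA and EB the single-agent effects.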

[2] = test system: NCI-H1915 (Non-Small Cell Lung Carcinoma)
Procedure, shortened: as §1

[3] = test system: OE19 (Esophageal Adenocarcinoma)
Procedure, shortened: as §1

[4] = test system: VA-ES-BJ (Other Solid Carcinomas)
Procedure, shortened: as §1

Compound	combination Emax [1]	combination Emax [2]	combination Emax [3]	combination Emax [4]
CN(CCO)CC[C@H](CSc1ccccc1)Nc1ccc(S(=O)(=O)NC(=O)c2ccc(N3CCC([C@@H](O)c4ccccc4-c4ccc(Cl)cc4)CC3)cc2)cc1S(=O)(=O)C(F)(F)F [AZD4320] + CCN(CCO)CCCOc1ccc2c(Nc3cc(CC(=O)Nc4cccc(F)c4)[nH]n3)ncnc2c1 [AZD2811] (first compound max 1 µM, 7x7, partner max 1 µM)	0.517	0.31	0.854	0.291
Cc1cc2ncnn2cc1Nc1ncc2c(n1)n(C1CCOCC1)c(=O)n2C [AZD7648] + O=C(c1cc(Cc2n[nH]c(=O)c3ccccc23)ccc1F)N1CCN(C(=O)C2CC2)CC1 [Olaparib] (first compound max 10 µM, 7x7, partner max 10 µM)	0.26	0.372	0.289	0.18
CN(CCO)CC[C@H](CSc1ccccc1)Nc1ccc(S(=O)(=O)NC(=O)c2ccc(N3CCC([C@@H](O)c4ccccc4-c4ccc(Cl)cc4)CC3)cc2)cc1S(=O)(=O)C(F)(F)F [AZD4320] + Cn1cnc2c(F)c(Nc3ccc(Br)cc3Cl)c(C(=O)NOCCO)cc21 [Selumetinib] (first compound max 1 µM, 7x7, partner max 3 µM)	0.797	0.583	0.314	0.203
CN(CCO)CC[C@H](CSc1ccccc1)Nc1ccc(S(=O)(=O)NC(=O)c2ccc(N3CCC([C@@H](O)c4ccccc4-c4ccc(Cl)cc4)CC3)cc2)cc1S(=O)(=O)C(F)(F)F [AZD4320] + Cc1cc2ncnn2cc1Nc1ncc2c(n1)n(C1CCOCC1)c(=O)n2C [AZD7648] (first compound max 1 µM, 7x7, partner max 10 µM)	0.129	0.223	0.415	0.174
Cc1cc2ncnn2cc1Nc1ncc2c(n1)n(C1CCOCC1)c(=O)n2C [AZD7648] + C[C@@H]1COCCN1C2=NC(=NC(=C2)C3(CC3)[S@](=N)(=O)C)C4=C5C=CNC5=NC=C4 [AZD6738] (first compound max 10 µM, 7x7, partner max 10 µM)	0.584	0.364	0.813	0.73
C[C@@H](c1ccc2nccn2c1)n1nnc2ncc(-c3cnn(C)c3)nc21 [Savolitinib] + Cc1c2c(nn1C)CSCc1cc(n(C)n1)CSc1cc(c3ccccc3c1)OCCCc1c(C(=O)O)n(C)c3c-2c(Cl)ccc13 [AZD5991] (first compound max 1 µM, 7x7, partner max 1 µM)	0.236	0.0983	0.235	0.218
Cc1cc2ncnn2cc1Nc1ncc2c(n1)n(C1CCOCC1)c(=O)n2C [AZD7648] + CCN(CCO)CCCOc1ccc2c(Nc3cc(CC(=O)Nc4cccc(F)c4)[nH]n3)ncnc2c1 [AZD2811] (first compound max 10 µM, 7x7, partner max 1 µM)	0.188	0.252	0.774	0.346
CN(CCO)CC[C@H](CSc1ccccc1)Nc1ccc(S(=O)(=O)NC(=O)c2ccc(N3CCC([C@@H](O)c4ccccc4-c4ccc(Cl)cc4)CC3)cc2)cc1S(=O)(=O)C(F)(F)F [AZD4320] + C1CN(CCC1(C(=O)N[C@@H](CCO)C2=CC=C(C=C2)Cl)N)C3=NC=NC4=C3C=CN4 [Capivasertib] (first compound max 1 µM, 7x7, partner max 3 µM)	0.32	0.116	0.333	0.224
CN(CCO)CC[C@H](CSc1ccccc1)Nc1ccc(S(=O)(=O)NC(=O)c2ccc(N3CCC([C@@H](O)c4ccccc4-c4ccc(Cl)cc4)CC3)cc2)cc1S(=O)(=O)C(F)(F)F [AZD4320] + C[C@@H]1COCCN1C2=NC(=NC(=C2)C3(CC3)[S@](=N)(=O)C)C4=C5C=CNC5=NC=C4 [AZD6738] (first compound max 1 µM, 7x7, partner max 10 µM)	0.927	0.529	0.726	0.863
CN(CCO)CC[C@H](CSc1ccccc1)Nc1ccc(S(=O)(=O)NC(=O)c2ccc(N3CCC([C@@H](O)c4ccccc4-c4ccc(Cl)cc4)CC3)cc2)cc1S(=O)(=O)C(F)(F)F [AZD4320] + C[C@@H](Nc1cc(F)cc(F)c1)c1cc(C(=O)N(C)C)cc2c(=O)cc(N3CCOCC3)oc12 [AZD8186] (first compound max 1 µM, 7x7, partner max 3 µM)	0.852	0.455	0.489	0.296
C[C@@H](c1ccc2nccn2c1)n1nnc2ncc(-c3cnn(C)c3)nc21 [Savolitinib] + CC1(C)CCC(CN2CCN(c3ccc(C(=O)NS(=O)(=O)c4ccc(NCC5CCOCC5)c([N+](=O)[O-])c4)c(Oc4cnc5[nH]ccc5c4)c3)CC2)=C(c2ccc(Cl)cc2)C1 [Venetoclax] (first compound max 1 µM, 7x7, partner max 1 µM)	0	0.145	0.166	0.152
COc1cc2c(cc1OCCCCCOc1cc3c(cc1OC)C(=O)N1C=C(C)C[C@H]1C=N3)N=C[C@@H]1CC(C)=CN1C2=O [SG3199] + O=C(c1cc(Cc2n[nH]c(=O)c3ccccc23)ccc1F)N1CCN(C(=O)C2CC2)CC1 [Olaparib] (first compound max 0.001 µM, 7x7, partner max 10 µM)	0.212	0.353	0.216	0.151
Cc1nc(Nc2ncc(C(=O)Nc3c(C)cccc3Cl)s2)cc(N2CCN(CCO)CC2)n1 [Dasatinib] + CC(=O)Nc1cccc(-n2c(=O)n(C3CC3)c(=O)c3c(Nc4ccc(I)cc4F)n(C)c(=O)c(C)c32)c1 [Trametinib] (first compound max 2 µM, 7x7, partner max 1 µM)	0.423	1	0.797	0.441
Cc1cc2ncnn2cc1Nc1ncc2c(n1)n(C1CCOCC1)c(=O)n2C [AZD7648] + C=CCn1c(=O)c2cnc(Nc3ccc(N4CCN(C)CC4)cc3)nc2n1-c1cccc(C(C)(C)O)n1 [AZD1775] (first compound max 10 µM, partner max 1 µM)	0.41	0.553	0.465	0.453
CN(CCO)CC[C@H](CSc1ccccc1)Nc1ccc(S(=O)(=O)NC(=O)c2ccc(N3CCC([C@@H](O)c4ccccc4-c4ccc(Cl)cc4)CC3)cc2)cc1S(=O)(=O)C(F)(F)F [AZD4320] + C=CCn1c(=O)c2cnc(Nc3ccc(N4CCN(C)CC4)cc3)nc2n1-c1cccc(C(C)(C)O)n1 [AZD1775] (first compound max 1 µM, partner max 1 µM)	0.585	0.853	0.33	0.458
Cc1cc2ncnn2cc1Nc1ncc2c(n1)n(C1CCOCC1)c(=O)n2C [AZD7648] + CN(C)CCCOc1ccc(-c2ccc3ncc4c(c3c2)n(C2CCOCC2)c(=O)n4C)cn1 [AZD0156] (first compound max 10 µM, 7x7, partner max 1 µM)	0.112	0.294	0.363	0.225
COc1cc2ncnc(Nc3ccc(F)c(Cl)c3)c2cc1OCCCN1CCOCC1 [Gefitinib] + CC(C)n1c(=O)n(C)c2cnc3cc(F)c(-c4ccc(OCCCN5CCCCC5)nc4)cc3c21 [AZD1390] (first compound max 10 µM, 7x7, partner max 0.3 µM)	0.0642	0.213	0.943	0.0868
